Assay results as given in publication PMC6921279 (Frontiers in Endocrinology, 2019).

Assays:
[1] = system: EGF-stimulated ERK1/2 phosphorylation; experiment: Modulation of EGF-stimulated ERK1/2 phosphorylation in COS-7 cells; type: cell-based; details: wortmannin 100 nM, 30 min pretreatment; 10 ng/ml EGF, 10 min
Procedure: (§1) COS-7 cells (from the American Type Culture Collection) were cultured at 37°C in a humidified atmosphere of 95% air, 5% CO2, in DMEM supplemented with 10% FBS, 100 μg/ml streptomycin, and 100 units/ml penicillin (COS-7 growth medium). Transient transfections were performed using LipofectAMINE (Life Technologies: Gaithersburg, MD) as described previously ([27]). Cells were seeded at 8 × 10^5 cells/10-cm dish in COS-7 medium and cultured for 3 days before transfection. COS-7 cells were transfected in 5 ml/dish OptiMEM containing 10 μg/ml LipofectAMINE with empty vector, pcDNA3 encoding the HA-CRF1R or the HA-CRF1R-Δ386 mutant. […] After replacing the transfection medium with fresh growth medium, transfected COS-7 cells were cultured for 1 day. […]
(§2) The protocols for measuring total and phosphorylated ERK1/2, c-Src, PYK2, Akt, and EGFR have been previously published ([28], [29]). […] The labeled bands were quantified using the Quantity One 4.6.3 software program (Bio-Rad).
Figure 3 Involvement of EGFR transactivation in CRF-stimulated ERK1/2 phosphorylation. […] Total cell lysates were separated by SDS-PAGE and analyzed by immunoblotting with anti-p-ERK1/2 Thr^202/Tyr^204 (A–D) or anti-p-EGFR Tyr^1068 (E), as described in Materials and Methods. ERK1/2 and EGFR phosphorylation were quantitated by densitometry, and mean values were plotted from three to five independent experiments. […]

[2] = system: Src; experiment: CRF-induced Src phosphorylation at Tyr416 in COS-7 cells expressing HA-CRF1R; type: cell-based; details: 100 nM wortmannin, 30 min pretreatment; 100 nM CRF, 5 min
Procedure: as §1, §2
Figure 5 Role of Src tyrosine kinase in CRF-stimulated ERK1/2 phosphorylation. […] Total cell lysates were separated by SDS-PAGE and analyzed by immunoblotting with anti-p-Src Tyr^416 (A,B) or anti-p-ERK1/2 Thr^202/Tyr^204 (C–E), as described in Materials and Methods. Src, PYK2, and ERK1/2 phosphorylation were quantitated by densitometry, and mean values were plotted from three to five independent experiments. […]

COC[C@H]1OC(=O)c2coc3c2[C@@]1(C)C1=C(C3=O)[C@@H]2CCC(=O)[C@@]2(C)C[C@H]1OC(C)=O [wortmannin]
effect on EGF-stimulated ERK1/2 phosphorylation [1]: unable to inhibit the effect of EGF
effect on CRF-induced Src Tyr416 phosphorylation [2]: did not alter CRF-induced phosphorylation of Src at Tyr^416
